According to patent publication US7488738B2, “Aminophenoxyacetic acid derivatives and pharmaceutical composition containing thereof” (Asubio Pharma Co., Ltd., priority 1998, dated 2009):

system: cells of cerebral cortex; assay: Cytoprotective effect against glutamate induced cell death (MTT); assay type: cell-based, rats of Wister strain; details: compound 1 μM added 24 h before 1 mM glutamate, fetal rat cerebral cortex cells, control group = 100%
Experimental: Biological Test 1: Cytoprotective Effect Against Glutamate Induced Cell Death
In accordance with the method of M. P. Mattoson [M. P. Mattoson, Brain Res. Rev., 13, 179 (1988)], brain of 18-days fetus rats of Wister strain were taken out. Then, cells of cerebral cortex (4×10^5 cells/ml) were seeded on poly-L-lysine coated 96 wells flat bottom plate (Sumitomo Bakelite Co., Ltd.) in concentration of 4×10^4 cells/each well. After 48 hours of incubation, 1 μM of test compounds were added, then after further 24 hours, 1 mM of glutamate were further added for inducing the cell injury. 12 hours after adding glutamate, MTT [3-(4,5-dimethylthiazol)-2,5-diphenyltetrazolium bromide] was added and incubated for 6 hours.
After incubation, 200 μl of dimethy sulfoxide was added to each wells, and the amounts of reduced MTT were calorimetrically analyzed by Micro ELISA Reader using 570 nm of main-wavelength and 650 nm of sub-wavelength.
The effect of the test compounds was determined as the survival rate of living cells (%) according to the following equation: Survival rate of living cells (%)=[(test compound group−glutamate treated group)÷(control group−glutamate treated group)]×100
That is, the survival rate of living cells after incubation of the control group was converted to 100%, and the survival data of living cells of the tested compounds was shown in Table II.

SMILES | Survival Rate (%) (Compound: 1 μM)
Cc1cc(OCC(=O)N(C)C2CCN(CC(=O)N[C@@H]3C[C@H]3c3ccccc3)CC2)c(C)c(C)c1N (relative stereo) [Compound 66] | 60
Cc1cc(OC(C)(C)C(=O)NC2CCN(C[C@@H]3C[C@H]3c3ccccc3)CC2)c(C)c(C)c1N (relative stereo) [Compound 99, 2-(4-Amino-2,3,5-trimethylphenoxy)-2-methyl-N-[1-(trans-2-phenyl-1-cyclopropylmethyl)-4-piperidinyl]propamide] | 151
Cc1cc(OC(C)C(=O)NC2CCN(C[C@@H]3C[C@H]3c3ccccc3)CC2)c(C)c(C)c1N (relative stereo) [Compound 106, 2-(4-Amino-2,3,5-trimethylphenoxy)-N-[1-(trans-2-phenyl-1-cyclopropylmethyl)-4-piperidinyl]propamide] | 151
Cc1cc(N)c(NCC(=O)N(C)C2CCN(C[C@@H]3C[C@H]3c3ccccc3)CC2)cc1C (relative stereo) [Compound 137, 2-(2-Amino-4-5-dimethylanilino)-N-methyl-N-[1-(trans-2-phenyl-1-cyclopropylmethyl)-4-piperidinyl]acetamide] | 71
Cc1cc(OC(C)(C)C(=O)N(C)C2CCN(CCc3ccccc3)CC2)c(C)c(C)c1N [Compound 38, 2-(4-Amino-2,3,5-trimethylphenoxy)-2-methyl-N-methyl-N-[1-(2-phenethyl)-4-piperidinyl]propamide] | 114
Cc1c(C)c(NCC(=O)N(C)C2CCN(CC(=O)Nc3ccccc3)CC2)c(C)c(C)c1N [Compound 41, 2-(4-Amino-2,3,5,6-tetramethylanilino)-N-[1-(2-anilino-2-oxyethyl)-4-piperidinyl]-N-methylacetamide] | 86
Cc1cc(OCC(=O)N(C)C2CCN(CC(=O)Nc3cccc(Cl)c3C)CC2)c(C)c(C)c1N [Compound 45, 2-(4-Amino-2,3,5-trimethylphenoxy)-N-[1-(2-(3-chloro-2-methyl)anilino-2-oxyethyl)-4-piperidinyl]-N-methylacetamide] | 190
Cc1cc(OCC(=O)N(C)C2CCN(CC(=O)Nc3ccccc3C(C)(C)C)CC2)c(C)c(C)c1N [Compound 46, 2-(4-Amino-2,3,5-trimethylphenoxy)-N-[1-(2-(2-tert-butyl)anilino-2-oxyethyl)-4-piperidinyl]-N-methylacetamide] | 101
Cc1cc(OC(C)(C)C(=O)N(C)C2CCN(CC(=O)Nc3cccc(Cl)c3C)CC2)c(C)c(C)c1N [Compound 48, 2-(4-Amino-2,3,5-trimethylphenoxy)-2-methyl-N-[1-(2-(3-chloro-2-methyl)anilino-2-oxyethyl)-4-piperidinyl]-N-methylpropamide] | 207
Cc1cc(OC(C)(C)C(=O)N(C)C2CCN(CC(=O)Nc3ccccc3C(C)(C)C)CC2)c(C)c(C)c1N [Compound 49, 2-(4-Amino-2,3,5-trimethylphenoxy)-2-methyl-N-[1-(2-tert-butylanilino-2-oxyethyl)-4-piperidinyl]-N-methylpropamide] | 193
Cc1cc(OC(C)(C)C(=O)N(C)C2CCN(CC(=O)Nc3c(C)cccc3C)CC2)c(C)c(C)c1N [Compound 50, 2-(4-Amino-2,3,5-trimethylphenoxy)-2-methyl-N-[1-(2-(2,6-dimethyl)anilino-2-oxyethyl)-4-piperidinyl]-N-methyl-propamide] | 54
Cc1cc(OC(C)C(=O)N(C)C2CCN(CC(=O)Nc3ccccc3C(C)(C)C)CC2)c(C)c(C)c1N (centres unmarked) [Compound 60, 2-(4-Amino-2,3,5-trimethylphenoxy)-N-[1-(2-(2-tert-butylanilino)-2-oxyethyl)-4-piperidinyl]-N-methylpropamide] | 60
Cc1cc(OC(C)C(=O)N(C)C2CCN(CC(=O)Nc3c(C)cccc3C)CC2)c(C)c(C)c1N (centres unmarked) [Compound 61, 2-(4-Amino-2,3,5-trimethylphenoxy)-N-[1-(2-(2,6-dimethylanilino)-2-oxyethyl)-4-piperidinyl]-N-methylpropamide] | 58
Cc1cc(OC(C)C(=O)N(C)C2CCN(C/C=C/c3ccccc3)CC2)c(C)c(C)c1N (centres unmarked) [Compound 62, 2-(4-Amino-2,3,5-trimethylphenoxy)-N-methyl-N-[1-(3-phenyl-2-(E)-propenyl)-4-piperidinyl]propamide] | 63
Cc1cc(OCC(=O)N(C)C2CCN(CC(O)COc3ccccc3)CC2)c(C)c(C)c1N (centres unmarked) [Compound 65, 2-(4-Amino-2,3,5-trimethylphenoxy)-N-methyl-N-[1-(2-hydroxy-3-phenoxy)propyl-4-piperidinyl]acetamide] | 73
Cc1cc(OC(C)(C)C(=O)N(C)C2CCN(C/C=C/c3ccccc3)CC2)c(C)c(C)c1N [Compound 67, 2-(4-Amino-2,3,5-trimethylphenoxy)-2-methyl-N-methyl-N-{1-(3-phenyl-2-(E)-propenyl)-4-piperidinyl]propamide] | 69
Cc1cc(OC(C)(C)C(=O)N(C)C2CCN(CC3(c4ccccc4)CC3)CC2)c(C)c(C)c1N [Compound 68, 2-(4-Amino-2,3,5-trimethylphenoxy)-2-methyl-N-methyl-N-[1-(1-phenyl-1-cyclopropane)methyl-4-piperidinyl]propamide] | 75
Cc1cc(OC(C)(C)C(=O)N(C)C2CCN(CC(=O)NC3(c4ccccc4)CC3)CC2)c(C)c(C)c1N [Compound 69, 2-(4-Amino-2,3,5-trimethylphenoxy)-2-methyl-N-methyl-N-[1-(2-(1-phenylcyclopropyl)amino-2-oxyethyl)-4-piperidinyl]propamide] | 68
Cc1c(C)c(NCC(=O)N(C)C2CCN(CC3(c4ccccc4)CC3)CC2)c(C)c(C)c1N [Compound 70, 2-(4-Amino-2,3,5,6-tetramethylanilino)-N-methyl-N-[1-(1-phenyl-1-cyclopropane)methyl-4-piperidinyl]acetamide] | 88
CCN(C(=O)COc1cc(C)c(N)c(C)c1C)C1CCN(CC(=O)Nc2ccccc2)CC1 [Compound 71, 2-(4-Amino-2,3,5-trimethylphenoxy)-N-[1-(2-anilino-2-oxyethyl)-4-piperidinyl]-N-ethylacetamide] | 89
CCN(C(=O)C(C)Oc1cc(C)c(N)c(C)c1C)C1CCN(CC(=O)Nc2ccccc2)CC1 (centres unmarked) [Compound 75, 2-(4-Amino-2,3,5-trimethylphenoxy)-N-[1-(2-anilino-2-oxyethyl)-4-piperidinyl]-N-ethylpropamide] | 96
CCN(C(=O)C(C)Oc1cc(C)c(N)c(C)c1C)C1CCN(C/C=C/c2ccccc2)CC1 (centres unmarked) [Compound 77, 2-(4-Amino-2,3,5-trimethylphenoxy)-N-ethyl-N-[1-(3-phenyl-2-(E)-propenyl)-4-piperidinyl]propamide] | 111
Cc1cc(OC(C)(C)C(=O)N(C)C2CCN(CC(=O)Nc3cc(Cl)c(N)cc3Cl)CC2)c(C)c(C)c1N [Compound 79, 2-(4-Amino-2,3,5-trimethylphenoxy)-2-methyl-N-[1-(2-(4-amino-2,5-dichloro)anilino-2-oxyethyl)-4-piperidinyl]-N-methylpropamide] | 79

same assay, conditions: compound 1 μM added 24 h before 1 mM glutamate, fetal rat cerebral cortex cells, control group = 100%, read-out: Survival Rate (%) (Compound: 1 μM)

SMILES | viability at 1 µM [%]
CCN(C(=O)CNc1c(C)c(C)c(N)c(C)c1C)C1CCN(C[C@@H]2C[C@H]2c2ccccc2)CC1 (relative stereo) [Compound 94, 2-(4-Amino-2,3,5,6-tetramethylanilino)-N-ethyl-N-[1-(trans-2-phenyl-1-cyclopropylmethyl)-4-piperidinyl]acetamide] | 198
Cc1cc(OCC(=O)NC2CCN(C[C@@H]3C[C@H]3c3ccccc3)CC2)c(C)c(C)c1N (relative stereo) [Compound 95, 2-(4-Amino-2,3,5-trimethylphenoxy)-N-[1-(trans-2-phenyl-1-cyclopropylmethyl)-4-piperidinyl]acetamide] | 61
Cc1cc(OCC(=O)N(C)C2CCN(Cc3ccc4ccccc4n3)CC2)c(C)c(C)c1N [Compound 44, 2-(4-Amino-2,3,5-trimethylphenoxy)-N-methyl-N-[1-(2-quinolylmethyl)-4-piperidinyl]acetamide] | 93
Cc1cc(OCC(=O)N(C)C2CCN(C/C=C/c3ccccc3)CC2)c(C)c(C)c1N [Compound 53, 2-(4-Amino-2,3,5-trimethylphenoxy)-N-methyl-N-[1-(3-phenyl-2-(E)-propenyl)-4-piperidinyl]acetamide] | 144
CCN(C(=O)COc1cc(C)c(N)c(C)c1C)C1CCN(C/C=C/c2ccccc2)CC1 [Compound 74, 2-(4-Amino-2,3,5-trimethylphenoxy)-N-ethyl-N-[1-(3-phenyl-2-(E)-propenyl)-4-piperidinyl]acetamide] | 87
CCN(C(=O)CNc1c(C)c(C)c(N)c(C)c1C)C1CCN(C/C=C/c2ccccc2)CC1 [Compound 78, 2-(4-Amino-2,3,5,6-tetramethylanilino)-N-ethyl-N-[1-(3-phenyl-2-(E)-propenyl)-4-piperidinyl]acetamide] | 96
